One series relates to HCT116. Briefly: In Vitro cytotoxicity measured by the cell colony formation assay. As to conditions: Homo sapiens, HCT-116; read-out: IN VITRO ID 50 HCT116. Format: cell-based, human. In short, it runs like this: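 Four hundred cells per dish in McCoy's 5a medium with 10% FBS were allowed to attach for 5 h at 37 °C. They were then exposed to compound for 72 h at 37 °C, added as a 10× stock made fresh in medium. After HBSS rinsing and refeeding, colonies were counted after 7 days.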

For a further series, the system named is HCT116 carcinoma. As to conditions: for Toxic Deaths: mg/kg: Taxol 36 (split doses), 0503 72.6, 0536 49, 0663 159, 0670 123, 0687 159, 0706 108, 0908 159, 0947 76.9, 0951 72.6, 0983 72.6, 0999 49, 1003 49, 1011 108. The protocol: Antitumor compounds were formulated for an i.v. dosing regime and were prepared in the following vehicle: 5% ethanol, 5% Cremophor and 90% isotonic saline.
The antitumor compounds were given intravenously in a single maximum tolerated dose (MTD) appropriate for each compound. […] The MTDs for the antitumor compounds were calculated from earlier single dose data for mice receiving i.v. administration of these compounds. All vehicle control animals in the split dosing regimes were dosed twice intravenously with half of the total volume being given separated by one hour. The study was terminated on Day 60.
A complete response is obtained if the tumor is not palpable at the end of the study.

The subject of the next series is MX-1 carcinoma. As to conditions: for Toxic Deaths: mg/kg: Taxol 36 (split dose), 0503 72.6, 0536 49, 0663 159, 0670 123, 0687 159, 0706 108, 0908 159, 0947 76.9, 0951 72.6, 0983 67.4, 0999 49, 1003 49, 1011 108. As for the experimental part:
Thirteen antitumor compounds were formulated for an i.v. dosing regime (single i.v. bolus, qd x 1 schedule) prepared in the following vehicle: 5% ethanol, 5% Cremophor and 90% isotonic saline.
The antitumor compounds were given intravenously in a single maximum tolerated dose (MTD) appropriate for each compound. […] The MTDs for the antitumor compounds were calculated from earlier single dose data for mice receiving i.v. administration of these compounds. All vehicle control animals in the split dosing regimes were dosed twice intravenously with half the total volume being given separated by one hour. The study was terminated on Day 60.
A complete response is obtained if the tumor is not palpable at the end of the study. […]

In the next series the test system is A2780 ovarian carcinoma. As for the experimental part: Dosing was initiated on Day 1. […] Taxotere was given i.v. on a qd x 1 schedule at a dose of 70 mg/kg. […] The study was terminated on Day 60. Treatment groups are detailed in Table 7.
The mark [1] stands for this setting: number of 5 mice, i.v. qd x 1 at MTD, Day 60, doses as in E3.
[2] abbreviates: number of 5 mice, i.v. qd x 1 at MTD, Day 60.
Where [3] appears, read: number of 6 mice, i.v. qd x 1 at MTD, Day 60, doses as in E17.
[4] abbreviates: number of 6 mice, i.v. qd x 1 at MTD, Day 60.
Where [5] appears, read: number of mice, i.v. qd x 1 at estimated MTD (Taxol 24 mg/kg, Taxotere 70 mg/kg, 0983 72.6 mg/kg), 5 mice/group (Taxotere 6), Day 60.

Like-named read-outs stand apart in the source and are kept apart here.

As for `CCC(=O)O[C@H]1C(=O)[C@@]2(C)[C@H]([C@H](OC(=O)c3ccccc3)[C@]3(O)C[C@H](OC(=O)[C@H](O)[C@@H](NC(=O)OC(C)(C)C)c4ccco4)C(C)=C1C3(C)C)[C@]1(OC(C)=O)CO[C@@H]1C[C@@H]2O` [Compound 0536], the IC50 in the series on HCT116 is < 1 nM. For the same compound, the “Mean Score” value in the series on HCT116 carcinoma (i.v. qd x 1 at MTD, 5 mice/group, Day 60, doses as in E3) is 9.2 ± 0.2; in the series on MX-1 carcinoma (i.v. qd x 1 at MTD, 6 mice/group, Day 60, doses as in E17) it was 6.7 ± 2.1; in the series on A2780 ovarian carcinoma (tumor scoring system, i.v. qd x 1 at estimated MTD (Taxol 24 mg/kg, Taxotere 70 mg/kg, 0983 72.6 mg/kg), 5 mice/group (Taxotere 6)), 3 ± 0. For the same compound, the “Stable Disease” value in the series with HCT116 carcinoma (number of 5 mice, tumor did not reach 2.0 g by end of study, i.v. qd x 1 at MTD, Day 60, doses as in E3) is 0; in the series on MX-1 carcinoma (number of 6 mice, tumor did not reach 2.0 g by end of study, i.v. qd x 1 at MTD, Day 60, doses as in E17), 0; with A2780 ovarian carcinoma (setting [5]) it was 0. Also, the “Complete Response” value in the series on HCT116 carcinoma (number of 5 mice, tumor not palpable at end of study, i.v. qd x 1 at MTD, Day 60, doses as in E3) was 1; in the series with MX-1 carcinoma (number of 6 mice, tumor not palpable at end of study, i.v. qd x 1 at MTD, Day 60, doses as in E17) it was 4; in the series with A2780 ovarian carcinoma (setting [5]), 0. For the same compound, the “Partial Response” value with HCT116 carcinoma (number of 5 mice, tumor smaller than on Day 1, i.v. qd x 1 at MTD, Day 60, doses as in E3) is listed as 4; with MX-1 carcinoma (number of 6 mice, tumor smaller than on Day 1, i.v. qd x 1 at MTD, Day 60, doses as in E17) it was 0. Moreover, the Survivors with HCT116 carcinoma (setting [1]) is 5; with MX-1 carcinoma (setting [3]), 4; in the series on A2780 ovarian carcinoma (setting [5]) it was 0. The “Toxic Deaths” value with HCT116 carcinoma (setting [2]) is given as 0; in the series on MX-1 carcinoma (setting [4]), 2; in the series with A2780 ovarian carcinoma (number of mice, i.v. qd x 1 at estimated MTD (Taxol 24 mg/kg, Taxotere 70 mg/kg, 0983 72.6 mg/kg), 5 mice/group (Taxotere 6)) it was 0. The “antitumor activity / tumor response” value with MX-1 carcinoma (MX-1, i.v. qd x 1, Day 60) is “complete and durable tumor regressions in all the treated mice”. Besides, the “antitumor activity” value in the series with A2780 ovarian carcinoma (A2780, i.v. qd x 1) was “did not cause any complete responses, partial responses, or cases of stable disease”. Besides, the MDS in the series on A2780 ovarian carcinoma (A2780, i.v. qd x 1 (compounds estimated MTD; Taxol 24 mg/kg split; Taxotere 70 mg/kg), days until tumor 2.0 g, ended Day 60) is listed as 42.6 days. Moreover, the “MDS (n)” value with A2780 ovarian carcinoma (mean days of survival until neoplasm reached 2.0 g, i.v. qd x 1 at estimated MTD (Taxol 24 mg/kg, Taxotere 70 mg/kg, 0983 72.6 mg/kg), 5 mice/group (Taxotere 6), terminated Day 60) is recorded as 42.6 ± 3.3 (5) days. For the same compound, in the series with A2780 ovarian carcinoma (setting [5]), the “Partial Respons” value was 0.
For the compound `CCC(=O)O[C@H]1C(=O)[C@@]2(C)[C@H]([C@H](OC(=O)c3ccccc3)[C@]3(O)C[C@H](OC(=O)[C@H](O)[C@@H](NC(=O)c4ccccc4)c4ccco4)C(C)=C1C3(C)C)[C@]1(OC(C)=O)CO[C@@H]1C[C@@H]2O` [Compound 0663], the IC50 with HCT116 was < 1 nM. Also, the “Partial Response” value in the series on HCT116 carcinoma (iv) is 2; with MX-1 carcinoma (iv), 0. Moreover, the “Complete Response” value in the series with HCT116 carcinoma (iv, 1440 h) came to 2; in the series with MX-1 carcinoma (iv, 1440 h) it was 4. The “Mean Score” value in the series with HCT116 carcinoma (iv, 1440 h) turned out to be 7.6 ± 1.9; with MX-1 carcinoma (iv, 1440 h), 7.7 ± 1.5. For the same compound, the “Stable Disease” value stood at 0 in the series with HCT116 carcinoma (iv, 1440 h) and 1 in the series on MX-1 carcinoma (iv, 1440 h). Also, the figures for the Survivors with HCT116 carcinoma (setting [1]) and in the series with MX-1 carcinoma (setting [3]) were 4 and 5, respectively. Also, the results for the “Toxic Deaths” value in the series with HCT116 carcinoma (setting [2]) and with MX-1 carcinoma (setting [4]) were 1 and 0, respectively. The “survival extension compared to Group 1 controls” value with A2780 ovarian carcinoma (A2780, i.v. qd x 1) was 214%. Moreover, the total response rate entry with A2780 ovarian carcinoma (A2780, i.v. qd x 1, five mice per group) was “at least 20%”.
Take `CCC(=O)OC1C(=O)C2(C)C(O)CC3OCC3(OC(C)=O)C2C(OC(=O)c2ccccc2)C2(O)CC(OC(=O)C(O)C(NC(=O)c3ccccc3)c3cccs3)C(C)=C1C2(C)C` (centres unmarked) [Compound 0687]: the Survivors is reported as 5 in the series with HCT116 carcinoma (setting [1]), 5 in the series on MX-1 carcinoma (setting [3]) and 0 with A2780 ovarian carcinoma (setting [5]).
On to `CCCC(=O)O[C@H]1C(=O)[C@@]2(C)[C@H]([C@H](OC(=O)c3ccccc3)[C@]3(O)C[C@H](OC(=O)[C@H](O)[C@@H](NC(=O)OCC(C)C)C4CC4)C(C)=C1C3(C)C)[C@]1(OC(C)=O)CO[C@@H]1C[C@@H]2O` [Compound 4808], for which, in the series with HCT116, the IC50 was < 10 nM.
Same read-out and setting: for `CCCC(=O)O[C@H]1C(=O)[C@@]2(C)[C@H]([C@H](OC(=O)c3ccccc3)[C@]3(O)C[C@H](OC(=O)[C@H](O)[C@@H](NC(=O)OCC(C)C)c4ccsc4)C(C)=C1C3(C)C)[C@]1(OC(C)=O)CO[C@@H]1C[C@@H]2O` [Compound 4834] the value was < 10 nM; for `C/C=C/C(=O)N[C@@H](c1ccoc1)[C@@H](O)C(=O)O[C@H]1C[C@@]2(O)[C@@H](OC(=O)c3ccccc3)[C@@H]3[C@]4(OC(C)=O)CO[C@@H]4C[C@H](O)[C@@]3(C)C(=O)[C@H](OC(=O)CC)C(=C1C)C2(C)C` [Compound 4888], < 1 nM.
Consider `C/C=C/C(=O)N[C@@H](c1ccoc1)[C@@H](O)C(=O)O[C@H]1C[C@@]2(O)[C@@H](OC(=O)c3ccccc3)[C@@H]3[C@]4(OC(C)=O)CO[C@@H]4C[C@H](O)[C@@]3(C)C(=O)[C@H](OC(=O)CCC)C(=C1C)C2(C)C` [Compound 4919], for which the IC50 in the series with HCT116 is < 1 nM.
On the same count and under the same terms, for `CC=CC(=O)NC(c1ccoc1)C(O)C(=O)OC1CC2(O)C(OC(=O)c3ccccc3)C3C4(OC(C)=O)COC4CC(O)C3(C)C(=O)C(OC(=O)C3CC3)C(=C1C)C2(C)C` (centres unmarked) [Compound 4944] the value was < 1 nM; for `CC(=O)OC12COC1CC(O)C1(C)C(=O)C(OC(=O)C3CC3)C3=C(C)C(OC(=O)C(O)C(NC(=O)OCC(C)C)c4ccsc4)CC(O)(C(OC(=O)c4ccccc4)C21)C3(C)C` (centres unmarked) [Compound 5011], < 10 nM.
Same read-out and setting: for `CC=CC(=O)NC(c1ccsc1)C(O)C(=O)OC1CC2(O)C(OC(=O)c3ccccc3)C3C4(OC(C)=O)COC4CC(O)C3(C)C(=O)C(OC(=O)C3CC3)C(=C1C)C2(C)C` (centres unmarked) [Compound 5040] the value was < 1 nM; for `CCC(=O)OC1C(=O)C2(C)C(O)CC3OCC3(OC(C)=O)C2C(OC(=O)c2ccccc2)C2(O)CC(OC(=O)C(O)C(C=C(C)C)NC(=O)OCC(C)C)C(C)=C1C2(C)C` (centres unmarked) [Compound 5065], < 10 nM.
The same measure, in the same setting: the result for `CCCC(=O)OC1C(=O)C2(C)C(O)CC3OCC3(OC(C)=O)C2C(OC(=O)c2ccccc2)C2(O)CC(OC(=O)C(O)C(C=C(C)C)NC(=O)OCC(C)C)C(C)=C1C2(C)C` (centres unmarked) [Compound 5144] reads < 10 nM; that for `CC(=O)OC12COC1CC(O)C1(C)C(=O)C(OC(=O)C3CC3)C3=C(C)C(OC(=O)C(O)C(NC(=O)OCC(C)C)C4CC4)CC(O)(C(OC(=O)c4ccccc4)C21)C3(C)C` (centres unmarked) [Compound 5232], < 10 nM; that for `CCC(=O)OC1C(=O)C2(C)C(O)CC3OCC3(OC(C)=O)C2C(OC(=O)c2ccccc2)C2(O)CC(OC(=O)C(O)C(NC(=O)OC(C)(C)C)c3ccoc3)C(C)=C1C2(C)C` (centres unmarked) [Compound 5495], < 1 nM.
As to `CCC(=O)OC1C(=O)C2(C)C(O)CC3OCC3(OC(C)=O)C2C(OC(=O)c2ccccc2)C2(O)CC(OC(=O)C(O)C(NC(=O)OC(C)(C)CC)c3ccco3)C(C)=C1C2(C)C` (centres unmarked) [Compound 6522], the IC50 with HCT116 is < 1 nM.

The values are drawn from patent EP1285920A1, “C10 Ester sustituted taxanes as antitumor agents” (Florida State University Research Foundation, Inc., priority 2001, dated 2003).
